Reference: article PMC6753678, “Fueling Open Innovation for Malaria Transmission-Blocking Drugs: Hundreds of Molecules Targeting Early Parasite Mosquito Stages” (Frontiers in Microbiology, 2019)
Where two headings read alike, the source gives them in different places.

Key:
[1] = system: 3D7-strain P. falciparum asexual parasites; test: P. falciparum asexual growth inhibition assay (Pf GIA); type: cell-based, Plasmodium falciparum; settings: dose response confirmation; read-out: Pf asexual growth inhibition assays IC50
Procedure, shortened: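 Parasites at 0.25% parasitemia, 2% hematocrit in Albumax-supplemented RPMI were exposed to compounds in dose response for 72 h at 37°C under 5% CO2/5% O2. Viability was read as LDH activity (NBT/diaphorase, A650 after freeze-thaw). Percent inhibition was calculated against chloroquine and DMSO controls, mean of three biological replicates.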

HepG2 cells = test: HepG2 cytotoxicity assay; settings: for IC50: read-out: HepG2 cytotoxicity assay IC50, dose response confirmation; for Pb ODA (this manuscript) HepG2 cytoxicity: HepG2 cytotoxicity listed with the Pb ODA data set (this manuscript)
Procedure, shortened: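 Cells are plated at 2,500 per well on compound-treated plates in MEM containing 10% fetal bovine serum and 1% NEAA, then incubated 48 h at 37°C.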

[2] = system: P. berghei ookinete development; settings: for % inhibition, Replicate A / % inhibition, Replicate B: primary screen at 1 μM
[3] = unified HepG2 value across the three screens
[4] = read-out: Pb ODA IC50, this manuscript
[5] = read-out: Pb Ookinete development assay IC50, dose response confirmation
[6] = HepG2 values of the three screens unified
[7] = read-out: Pb ODA (this manuscript) IC50, P. berghei ookinete development assay, this manuscript

SMILES | IC50 [1] | IC50 (HepG2 cells) | Unified cytotox (HepG2 cells; [3]) | Is compound selective in assay? Pb ODA active? ([2]; 1: YES, 0: NO) | % inhibition, Replicate A [2] | % inhibition, Replicate B [2] | IC50 [2, 4] | IC50 [2, 5] | HepG2 cytoxicity (Pb ODA, this manuscript) (HepG2 cells) | Unified cytotox (HepG2 cells; [6]) | Pb ODA (this manuscript) HepG2 cytoxicity (HepG2 cells) | Is compound selective in assay? Pb ODA active? [2] | IC50 [2, 7]
COc1cc(NC2=NS(=O)(=O)c3cc(Cl)ccc3N2C)cc(OC)c1OC.O=C(O)C(F)(F)F [TCMDC-134208] | 146 nM | 100000 nM | 100.00 µM | 1 (1: YES) | 117.05% | 98.94% | 1350 nM | 1350 nM | – | – | – | – | –
CC(C#N)Cc1ccc(-c2cnc(N)c3cc(-c4ccnc(N)n4)ccc23)cc1 (stereo not shown) [TCMDC-134547] | 1370 nM | 5750 nM | 5.75 µM | 0 (0: NO) | 69.67% | 52.16% | 850 nM | 849 nM | – | – | – | – | –
COc1ccc2nccc(N3CCC(NCCNCc4ccc5c(n4)NC(=O)CO5)C3)c2n1.Cl (stereo not shown) [TCMDC-134548] | 1.4 nM | 42700 nM | 42.66 µM | 1 (1: YES) | 4.96% | 51.82% | 1630 nM | 1620 nM | – | – | – | – | –
COCCN(C)c1ccc(C(=O)Nc2ccccc2)cc1NS(=O)(=O)Cc1ccccc1.O=C(O)C(F)(F)F [TCMDC-134575] | 606 nM | 100000 nM | 100.00 µM | 1 (1: YES) | 51.04% | 48.31% | – | 1400 nM | – | – | – | – | –
COc1ccc2ncc(C)c(CCN3CCC(NCc4ccc5c(n4)NC(=O)CS5)CC3)c2c1.Cl [TCMDC-134648] | 872 nM | 34700 nM | – | 1 (1: YES) | 66.89% | 104.06% | 2550 nM | 2550 nM | 34.67 µM | 34.67 µM | – | – | –
COc1ccc2ncc(Cl)c(NCC3(O)CCC(NCc4ccc5c(n4)NC(=O)CS5)CC3)c2n1.Cl (stereo not shown) [TCMDC-134671] | 1210 nM | 12600 nM | – | 1 (1: YES) | 92.69% | 100.49% | 810 nM | 813 nM | 12.59 µM | 12.59 µM | – | – | –
Cc1[nH]c(C)c(-c2ccc(C#Cc3ccc(F)cc3F)cc2)c(=O)c1Br [TCMDC-134692] | 16 nM | 100000 nM | – | – | 89.67% | 88.19% | – | 399 nM | – | – | 100.00 µM | 1 (key: 1: YES; 0: NO) | 400 nM
COc1ccc2nccc([C@@H](O)CN3C4CCC3CC(NCc3ccc5c(n3)NC(=O)CS5)C4)c2n1.Cl (stereo partly shown) [TCMDC-134697] | 1060 nM | 38900 nM | – | 0 (0: NO) | 46.01% | 53.20% | – | 4000 nM | 38.90 µM | 38.90 µM | – | – | –
COc1cc(OC)cc(-c2nn(-c3ccc([N+](=O)[O-])cc3C#N)c(=S)n2Cc2ccco2)c1 [TCMDC-134715] | 744 nM | 100000 nM | 100.00 µM | 1 (1: YES) | 26.66% | 59.14% | 1600 nM | 1600 nM | – | – | – | – | –
N#Cc1cc([N+](=O)[O-])ccc1-n1nc(C(N)=O)n(Cc2cccc(F)c2)c1=S [TCMDC-134721] | 650 nM | 34700 nM | 34.67 µM | 1 (1: YES) | 66.73% | 70.30% | 1120 nM | 1120 nM | – | – | – | – | –
Cc1[nH]c(C)c(-c2ccc(-c3ccc(OC(F)(F)F)cc3)cc2)c(=O)c1Br [TCMDC-134726] | 19 nM | 7760 nM | – | – | 101.74% | 103.66% | – | 26 nM | – | – | 7.76 µM | 1 (key: 1: YES; 0: NO) | 25.7 nM
Cc1[nH]c(C)c(-c2ccc(Oc3ccc(F)cc3)cc2)c(=O)c1Cl [TCMDC-134728] | 19 nM | 56200 nM | – | 1 (1: YES) | 96.35% | 103.17% | 50 nM | 49 nM | 56.23 µM | 56.23 µM | – | – | –
C/C=C/COc1ccc(-c2c(C)[nH]c(C)c(Cl)c2=O)cc1 [TCMDC-134729] | 281 nM | 100000 nM | – | 1 (1: YES) | 83.52% | 96.22% | 470 nM | 469 nM | – | 100.00 µM | – | – | –
COc1ccc2nccc([C@@H](O)CN3CCC(NC(=O)c4cc5c(F)cc(F)cc5[nH]4)CC3)c2n1 [TCMDC-134945] | 769 nM | 10500 nM | – | – | 54.14% | 76.92% | – | 415 nM | – | – | 10.47 µM | 1 (key: 1: YES; 0: NO) | 420 nM
Cc1cccc(Nc2nc(NCCCCN)nc3cc[nH]c(=O)c23)c1.O=C(O)C(F)(F)F [TCMDC-134946] | 487 nM | 28800 nM | 28.84 µM | 0 (0: NO) | 57.54% | 45.06% | 3060 nM | 3060 nM | – | – | – | – | –
CC1CN(Cc2cccc(C#N)c2)CCN1c1ccc(NC(=O)c2cccs2)cc1.O=C(O)C(F)(F)F (stereo not shown) [TCMDC-134969] | 78 nM | 3020 nM | – | – | 50.06% | 40.18% | – | 1640 nM | – | – | 3.02 µM | 0 (key: 1: YES; 0: NO) | –
CCC(C)CN1CCN(c2ccc(NC(=O)c3cccs3)cc2)C(C)C1.O=C(O)C(F)(F)F (stereo not shown) [TCMDC-134996] | 753 nM | 60300 nM | – | – | 97.72% | 83.44% | – | 1050 nM | – | – | 60.26 µM | 1 (key: 1: YES; 0: NO) | –
CC1CN(Cc2ccccc2)CCN1c1ccc(NC(=O)c2cccs2)cc1.O=C(O)C(F)(F)F (stereo not shown) [TCMDC-135005] | 504 nM | 57500 nM | – | – | 105.18% | 99.00% | – | 732 nM | – | – | 57.54 µM | 1 (key: 1: YES; 0: NO) | 730 nM
CC1CN(Cc2cccc(F)c2)CCN1c1ccc(NC(=O)c2cccs2)cc1.O=C(O)C(F)(F)F (stereo not shown) [TCMDC-135009] | 242 nM | 120000 nM | – | – | 59.80% | 66.69% | – | 420 nM | – | – | 120.23 µM | 1 (key: 1: YES; 0: NO) | –
